According to ChEMBL document CHEMBL3045422, “Synthesis, characterization, and antimicrobial screening of some Mannich base sydnone derivatives” (2013):
Converted amounts (≈) assume the structure as drawn.

How the values were obtained:
Candida albicans [1] = system: Candida albicans
Candida albicans [2] = system: Candida albicans; remark: listed apart in the source
Candida albicans [3] = experiment: microbe, parasite or virus in culture; assay type: functional
Escherichia coli [4] = experiment: microbe, parasite or virus in culture; assay type: functional
Description: Antibacterial activity against Escherichia coli

Pseudomonas aeruginosa [5] = experiment: microbe, parasite or virus in culture; assay type: functional; details: read-out: IZ
Description: Antibacterial activity against Pseudomonas aeruginosa at 300 ug/ml

Bacillus subtilis [6] = experiment: microbe, parasite or virus in culture; assay type: functional
Description: Antibacterial activity against Bacillus subtilis

Staphylococcus aureus [7] = experiment: microbe, parasite or virus in culture; assay type: functional; details: read-out: IZ
Description: Antibacterial activity against Staphylococcus aureus at 300 ug/ml

Staphylococcus aureus [8] = experiment: microbe, parasite or virus in culture; assay type: functional
Description: Antibacterial activity against Staphylococcus aureus

Escherichia coli [9] = experiment: microbe, parasite or virus in culture; assay type: functional; details: read-out: IZ
Description: Antibacterial activity against Escherichia coli at 300 ug/ml

Candida albicans [10] = experiment: Antifungal activity against Candida albicans at 300 ug/ml; assay type: functional; details: read-out: IZ
Pseudomonas aeruginosa [11] = experiment: microbe, parasite or virus in culture; assay type: functional
Description: Antibacterial activity against Pseudomonas aeruginosa

Bacillus subtilis [12] = experiment: microbe, parasite or virus in culture; assay type: functional; details: read-out: IZ
Description: Antibacterial activity against Bacillus subtilis at 300 ug/ml

Compound	MIC (Candida albicans [1]) [µg/mL]	IZ (Candida albicans [2]) [mm]	MIC (Candida albicans [3]) [µg/mL]	MIC (Escherichia coli [4]) [µg/mL]	zone of inhibition at 300 µg/mL (Pseudomonas aeruginosa [5]) [mm]	MIC (Bacillus subtilis [6]) [µg/mL]	zone of inhibition at 300 µg/mL (Staphylococcus aureus [7]) [mm]	MIC (Staphylococcus aureus [8]) [µg/mL]	zone of inhibition at 300 µg/mL (Escherichia coli [9]) [mm]	zone of inhibition at 300 µg/mL (Candida albicans [10]) [mm]	MIC (Pseudomonas aeruginosa [11]) [µg/mL]	zone of inhibition at 300 µg/mL (Bacillus subtilis [12]) [mm]
NYSTATIN	100	28										
COc1ccc(-[n+]2noc([O-])c2CNc2nc3ccc(OC)cc3s2)cc1			100 (≈ 260 µM)	200 (≈ 520 µM)	14	200 (≈ 520 µM)	14	100 (≈ 260 µM)	13	15	200 (≈ 520 µM)	12
COc1ccc(-[n+]2noc([O-])c2Cn2cnc3ccccc32)cc1			300 (≈ 931 µM)	500 (≈ 1550 µM)	10	300 (≈ 931 µM)	11	300 (≈ 931 µM)	10	12	500 (≈ 1550 µM)	11
COc1ccc(-[n+]2noc([O-])c2Cn2c(-c3cccc(Br)c3)nc3ccccc32)cc1			200 (≈ 419 µM)	300 (≈ 629 µM)	10	500 (≈ 1050 µM)	10	500 (≈ 1050 µM)	12	14	500 (≈ 1050 µM)	10
COc1ccc(-[n+]2noc([O-])c2CNc2cc(Cl)ccc2Cl)cc1			300 (≈ 819 µM)	500 (≈ 1370 µM)	10	300 (≈ 819 µM)	11	300 (≈ 819 µM)	10	13	500 (≈ 1370 µM)	12
COc1ccc(-[n+]2noc([O-])c2CNc2ccc(Br)cc2)cc1			200 (≈ 532 µM)	300 (≈ 797 µM)	13	200 (≈ 532 µM)	10	300 (≈ 797 µM)	12	15	200 (≈ 532 µM)	13
COc1ccc(-[n+]2noc([O-])c2Cn2c(-c3ccc(OC)c([N+](=O)[O-])c3)nc3ccccc32)cc1			200 (≈ 422 µM)	200 (≈ 422 µM)	16	500 (≈ 1060 µM)	10	500 (≈ 1060 µM)	14	16	200 (≈ 422 µM)	10
COc1ccc(-[n+]2noc([O-])c2CNc2ccc(F)cc2)cc1			100 (≈ 317 µM)	100 (≈ 317 µM)	11	200 (≈ 634 µM)	14	200 (≈ 634 µM)	17	17	300 (≈ 951 µM)	16
COc1ccc(-[n+]2noc([O-])c2CNc2nc3ccc([N+](=O)[O-])cc3s2)cc1			100 (≈ 250 µM)	300 (≈ 751 µM)	16	40 (≈ 100 µM)	16	80 (≈ 200 µM)	12	17	200 (≈ 501 µM)	18
